Assay [1] is filed under the species Mus musculus. Description: In vitro Efficacy to destroy the RIF tumor cells by MTT assay when incubated for 3 hr at drug concentration of 1.5 uM and exposed to laser light (780nm,16J/cm2). The assay is classed as functional. On the technique in general: Tetrazolium assays rely on reduction of a dye to a coloured formazan, in cell work by metabolically active cells.

Assay [2] has as its system Mus musculus. Briefly: In vivo photosensitizing efficacy when evaluated in mice assessed on day 90. The assay is classed as functional.

These results are taken from ChEMBL document CHEMBL1138757, “Synthesis and photosensitizing efficacy of isomerically pure bacteriopurpurinimides” (2004).

Turning to `CCCCCCCO[C@@H](C)C1=C(C)c2cc3[nH]c(c4c5[nH]c(cc6nc(cc1n2)[C@H](C)[C@H]6CC)c(C)c5C(=O)N(CCCCCC)C4=O)[C@@H](CCC(=O)OCCC)[C@@H]3C`, the Efficacy in the assay filed under Mus musculus [1] is 100%; with Mus musculus [2], 2 No. of mice tumor free.

For `CCCCCCCO[C@H](C)C1=C(C)c2cc3[nH]c(c4c5[nH]c(cc6nc(cc1n2)[C@H](C)[C@H]6CC)c(C)c5C(=O)N(CCCCCC)C4=O)[C@@H](CCC(=O)OCCC)[C@@H]3C`, the Efficacy is reported as 100% in the assay listed under Mus musculus [1] and 6 No. of mice tumor free in the assay on Mus musculus [2].
